Measurements taken from the Bradley open melting point set (2014).
“And” between values parts separate entries of the source, which are not always exact repeats. Identical values can stand only once.

Structure (SMILES)	melting point
C[C@H]1CCCC[C@@H]1C (relative stereo) [trans-1,2-dimethylcyclohexane]	-88 °C
C[C@H]1CCC[C@@H]1C (relative stereo) [trans-1,2-dimethylcyclopentane]	-118 °C
CC1(C)C[C@@H](C(=O)O)[C@@H]1N (relative stereo) [trans-2-Amino-3,3-dimethylcyclobutane-1-carboxylic acid]	155 °C
C[C@H]1CCCC[C@@H]1O (relative stereo) [trans-2-methylcyclohexanol]	-21 °C
NC(CO)Cc1ccccc1 (single isomer, unassigned; (-)) [(-)-2-amino-3-phenyl-1-propanol]	92 °C
NC(CCC(=O)O)C(=O)O (stereo in doubt) [D-Glutamic Acid]	201 °C
c1ccc(C(c2ccccc2)c2ccccc2)cc1 [1,1',1''-Methanetriyltribenzene]	94 °C
Oc1ccc2ccccc2c1-c1c(O)ccc2ccccc12 [1,1'-bi(2-naphthol)]	217 °C
c1ccc(-c2ccc(-c3ccccc3)cc2)cc1 [1,1':4',1''-Terphenyl]	213 °C
ClCC(Cl)(Cl)Cl [1,1,1,2-Tetrachloroethane]	-70 °C
ClCC(Cl)(Cl)Cl [1,1,1,2-tetrachloroethane]	-70 °C
OC(C(F)(F)F)C(F)(F)F [1,1,1,3,3,3-hexafluoro-2-propanol]	-3 °C
BrC(Br)C(Br)Br [1,1,2,2-Tetrabromoethane]	0 °C
ClC(Cl)C(Cl)Cl [1,1,2,2-Tetrachloroethane]	-43 °C
O=C(O)C1(C(=O)O)CC1 [1,1-cyclopropanedicarboxylic acid]	132 °C
CC1(C)CCCCC1 [1,1-dimethylcyclohexane]	-33 °C
C=C(c1ccccc1)c1ccccc1 [1,1-diphenylethene]	8 °C
CCC(c1ccccc1)c1ccccc1 [1,1-diphenylpropane]	14 °C
c1ccc2c(c1)CCCC2 [1,2,3,4-Tetrahydronaphthalene]	-31 °C
c1ccc2c(c1)CCCC2 [1,2,3,4-tetrahydronaphthalene(tetralin)]	-35 °C
c1ccc2c(c1)CCCN2 [1,2,3,4-tetrahydroquinoline]	14 °C
Clc1cc(Cl)c(Cl)c(Cl)c1 [1,2,3,5-Tetrachlorobenzene]	51.5 °C
ClCC(Cl)CCl [1,2,3-trichloropropane]	-14 °C

Structure (SMILES)	melting point
Clc1cc(Cl)c(Cl)cc1Cl [1,2,4,5-tetrachlorobenzene]	139 °C (2×) and 140 °C
Brc1ccc(Br)c(Br)c1 [1,2,4-Tribromobenzene]	44 °C
C[C@@H](Cl)CCl [1,2-Dichloro-Propane]	-100 °C
OC[C@@H](O)[C@H]1O[C@@H]2O[C@H](C(Cl)(Cl)Cl)O[C@@H]2[C@H]1O [1,2-O-[(1R)-2,2,2-Trichloroethylidene]-alpha-D-glucofuranose]	187 °C
Sc1ccccc1S [1,2-benzenedithiol]	23 °C
CCC(Br)CBr (configuration not stated) [1,2-dibromobutane]	-65 °C
Clc1cccc(I)c1Cl [1,2-dichloro-3-iodobenzene]	35 °C
O=[N+]([O-])c1ccc(Cl)c(Cl)c1 [1,2-dichloro-4-nitrobenzene]	41 °C
CC(Cc1ccccc1)c1ccccc1 (configuration not stated) [1,2-diphenylpropane]	0 °C
C(=C/P(=O)(O)O)P(=O)(O)O [1,2-ethylenediphosphonic acid]	219 °C
C=C1N(C)c2ccccc2C1(C)C [1,3,3-trimethyl-2-methyleneindoline]	-10 °C
C1=CC=CC=CC=C1 [1,3,5,7-cyclooctatetraene]	-27 °C
C=CCn1c(=O)n(CC=C)c(=O)n(CC=C)c1=O [1,3,5-Triallyl-1,3,5-triazinane-2,4,6-trione]	24 °C
O=C(c1ccccc1)c1cc(C(=O)c2ccccc2)cc(C(=O)c2ccccc2)c1 [1,3,5-tribenzoylbenzene]	118 °C
Brc1cc(Br)cc(Br)c1 [1,3,5-tribromobenzene] [listing 1 of 2 here]	124 °C (2×) and 122 °C
Brc1cc(Br)cc(Br)c1 [1,3,5-tribromobenzene] [listing 2 of 2 here]	123 °C
Clc1cc(Cl)cc(Cl)c1 [1,3,5-trichlorobenzene]	65 °C (2×) and 64 °C
Cc1nn(C)c(C)c1C=O [1,3,5-trimethyl-1h-pyrazole-4-carboxaldehyde]	82 °C
BrCCCBr [1,3-Dibromopropane]	-34 °C
O=C(Nc1ccccc1)Nc1ccccc1 [1,3-Diphenylurea]	238 °C
Brc1cccc(Br)c1 [1,3-dibromobenzene]	-7 °C
BrCCCBr [1,3-dibromopropane]	-34 °C
CC(C)c1cccc(C(C)C)c1 [1,3-diisopropylbenzene]	-63 °C

Structure (SMILES)	melting point
O=C(CC(=O)c1ccccc1)c1ccccc1 [1,3-diphenyl-1,3-propanedione]	78 °C
N#CCc1cccc(CC#N)c1 [1,3-phenylenediacetonitrile]	34 °C
O=S1(=O)CCCO1 [1,3-propanesultone]	32 °C
Nc1ccc(N)c2c1C(=O)c1c(N)ccc(N)c1C2=O [1,4,5,8-Tetraamino-9,10-anthraquinone]	332 °C
CCCCCCCCCCCCCCCCCC(=O)OC[C@@H](O)[C@H]1OC[C@H](O)[C@H]1O [1,4-Anhydro-6-O-stearoyl-D-glucitol]	57 °C
Clc1ccc(Cl)cc1 [1,4-Dichlorobenzene]	53 °C
OC(CS)C(O)CS (configuration not stated) [1,4-Disulfanylbutane-2,3-diol]	43 °C
O=C(O)C1COc2ccccc2O1 (configuration not stated) [1,4-benzodioxane-2-carboxylic acid]	124 °C
ClC(Cl)c1ccc(C(Cl)Cl)cc1 [1,4-bis(dichloromethyl)benzene]	93 °C
CC(=O)OCCCCOC(C)=O [1,4-diacetoxybutane]	13 °C
BrCCCCBr [1,4-dibromobutane]	-17 °C
CC(Br)CCCBr (configuration not stated) [1,4-dibromopentane] [listing 1 of 2 here]	-34 °C
Clc1ccc(Cl)cc1 [1,4-dichlorobenzene]	53 °C and 55 °C
ClCCCCCl [1,4-dichlorobutane]	-37 °C
N#Cc1ccc(C#N)cc1 [1,4-dicyanobenzene]	226 °C
N#CCCCCC#N [1,4-dicyanobutane]	2 °C
C1COCCO1 [1,4-dioxane]	12 °C
N#CCc1ccc(CC#N)cc1 [1,4-phenylenediacetonitrile]	96 °C
O=C(C=Cc1ccccc1)C=Cc1ccccc1 [1,5-Diphenylpenta-1,4-dien-3-one]	111 °C
OCCCCCO [1,5-pentanediol]	-16 °C
BrCCCCCCBr [1,6-Dibromohexane]	2 °C
C1CCC2=NCCCN2CC1 [1,8-diazabicyclo[5.4.0]undec-7-ene]	-70 °C

Now from value to compound:

melting point	Structure (SMILES)
-150 °C	C[C@@H]1C[C@H]1C (relative stereo) [trans-1,2-dimethylcyclopropane]
-123 °C	CCC[C@H]1CCC[C@@H]1C (relative stereo) [trans-1-methyl-2-propylcyclopentane]
144 °C	C#CC1(O)CC[C@H]2[C@@H]3CCc4cc(O)ccc4[C@H]3CC[C@@]21C (stereo in doubt) [(17beta)-17-Ethynylestra-1(10),2,4-triene-3,17-diol]
292 °C	CC(N)C(=O)O (stereo in doubt) [D-Alanine]
60 °C	C(#Cc1ccccc1)c1ccccc1 [1,1'-Ethyne-1,2-diyldibenzene]
294 °C	OB(O)c1cc(-c2ccccc2)cc(-c2ccccc2)c1 [1,1':3',1''-terphenyl-5'-boronic acid]
0 °C	BrC(Br)C(Br)Br [1,1,2,2-tetrabromoethane]
79 °C	Cc1cc(C)c(C)cc1C [1,2,4,5-tetramethylbenzene]
281 °C	O=C1c2ccccc2C(=O)c2c1ccc(O)c2O [1,2-Dihydroxy-9,10-anthraquinone]
51.5 °C	c1ccc(CCc2ccccc2)cc1 [1,2-Diphenylethane]
146 °C	O=C(CCC(=O)c1ccccc1)c1ccccc1 [1,2-dibenzoylethane]
-35 °C	ClCCCl [1,2-dichloroethane]
51.5 °C and 52 °C	c1ccc(CCc2ccccc2)cc1 [1,2-diphenylethane]
-60 °C	CC(O)CO (configuration not stated) [1,2-propanediol] [listing 1 of 2 here]
-60 °C	CC(O)CO (configuration not stated) [1,2-propanediol] [listing 2 of 2 here]
72 °C	O=[N+]([O-])c1c(Cl)cc(Cl)cc1Cl [1,3,5-Trichloro-2-nitrobenzene]
375 °C	O=C(O)c1cc(C(=O)O)cc(C(=O)O)c1 [1,3,5-benzenetricarboxylic acid]
135 °C	CC1(C)C(=O)N(Cl)C(=O)N1Cl [1,3-Dichloro-5,5-dimethylimidazolidine-2,4-dione]
118 °C	O=C(Oc1cccc(OC(=O)c2ccccc2)c1)c1ccccc1 [1,3-dibenzoyloxybenzene]
57 °C	Clc1cc(Cl)cc(I)c1 [1,3-dichloro-5-iodobenzene]
-16 °C	CCc1c(C)cccc1C [1,3-dimethyl-2-ethylbenzene]
197 °C	O=C1CCC(C(=O)O)=NN1 [1,4,5,6-tetrahydro-6-oxopyridazine-3-carboxylic acid]
35 °C	CN1CCCN(C)CCN(C)CCCN(C)CC1 [1,4,8,11-tetramethyl-1,4,8,11-tetraazacyclotetradecane]
66 °C	O=S(=O)(Cl)c1ccc2c(c1)OCCO2 [1,4-benzodioxane-6-sulfonyl chloride]
78 °C	O=C1CCC(=O)CC1 [1,4-cyclohexanedione]
77 °C	CC(C)(C)c1ccc(C(C)(C)C)cc1 [1,4-di-tert-butylbenzene]
-34 °C	CC(Br)CCCBr (configuration not stated) [1,4-dibromopentane] [listing 2 of 2 here]
251 °C	O=C(O)c1cc2cc(Br)ccc2c(Br)c1O [1,6-dibromo-2-hydroxynaphthalene-3-carboxylic acid]
60 °C	OCCCCCCCCO [1,8-octanediol]
